Where two headings read alike, the source gives them in different places.
Columns and labels:
[1] = test system: patients with COVID-19 requiring sedation and invasive mechanical ventilation
Source text: (§1) Data was collected from electronic medical records (EMRs) of Rush University hospitals: Rush University Medical Center; Rush Copley Medical Center; and Rush Oak Park Hospital. Deidentified data was collected from the EMRs by the Rush Bioinformatics and Biostatistics Core. This retrospective cohort study received expedited approval by the Institutional Review Board at Rush University Medical Center.
We identified patients that were hospitalized at Rush University from Mar. […] Corticosteroids were not excluded because at the time of the study there were no standard practices or guidelines for using this medication in the study population at Rush. Clinical outcomes were assessed from the time of admission to the time of discharge.
We evaluated patients in each group for age, gender, race, ethnicity, and comorbidities at admission. […] Directly prior to intubation, a sequential organ failure assessment score (SOFA) was calculated for each group, and a PaO2/FiO2 (mmHg) was separately assessed.
Our primary tool to assess 28-day mortality was multivariable Cox proportional hazards regression.
(§2) For continuous variables, independent samples t-tests were performed. For each continuous variable, a Levene's test for equality of variances was performed. With significance on Levene's test for heterogeneity of variances, a Mann-Whitney U test was performed. […] Categorical variables were assessed with a Pearson's chi-squared test. If any expected count in a 2×2 table was less than 5, a Fisher's exact test was performed. […] We used p≤0.05 as the threshold for significance.
Simple imputation using the mean of the immediate preceding and succeeding most severe value over 24 hours was used for missing values for Pao2/Flo2 and mSOFA scores within the 24 hour time period of interest (intubation) (11-13). A complete case analysis was performed (14). All analyses were performed using SPSS version 27.

[2] = test system: patients with COVID-19 requiring sedation and invasive mechanical ventilation; conditions: for Hospital length of stay / ICU Free days at day 60 / ICU time / Intubation time / Ventilator free days at day 60: mean
Source text: as §1
We identified patients that were hospitalized at Rush University from Mar. 1, 2020 to Jul. 30, 2020. […] Corticosteroids were not excluded because at the time of the study there were no standard practices or guidelines for using this medication in the study population at Rush. Clinical outcomes were assessed from the time of admission to the time of discharge.
as §2

[3] = 90% or greater vs less than 90%
[4] = time on dexmedetomidine/time on intubation 90% or greater (n=30)
[5] = time on dexmedetomidine/time on intubation less than 90% (n=122)

## Cc1cccc([C@H](C)c2cnc[nH]2)c1C [DEX, dexmedetomidine]
[1]; DEX cohort vs cohort that did not receive DEX, 95% CI 42.4-69.6%
  relative risk reduction (28-day mortality): 58.2%
[1]; from start time of intubation, cohort receiving DEX (n=152)
  28-day mortality: 27.0%
[1]; time cut-offs days 1-22 from intubation, earlier DEX use
  landmark analysis of 28-day mortality by start time of DEX: lower aHRs and increased significance
[1]; univariable Cox regression with DEX use as time-varying covariate, (95% CI)
  28-day mortality aHR: 0.56
[2]; 90% or greater (n=30)
  Hospital length of stay: 24.37 days
  ICU Free days at day 60: 36.45
  ICU time: 18.76 days
  Intubation time: 9.61 days
  Ventilator free days at day 60: 43.63
[2]; [3]
  Hospital length of stay, Difference Between Groups: -1.38 days
  ICU Free days at day 60, Difference Between Groups: 11.48
  ICU time, Difference Between Groups: -1.83 days
  Intubation time, Difference Between Groups: -5.92 days
  Ventilator free days at day 60, Difference Between Groups: 15.55
[2]; 90% or greater vs less than 90% of intubation time on dexmedetomidine
  In-hospital mortality, Risk Ratio: 0.277
[2]; less than 90% (n=122)
  Hospital length of stay: 25.75 days
  ICU Free days at day 60: 24.98
  ICU time: 20.59 days
  Intubation time: 15.53 days
  Ventilator free days at day 60: 28.08
[2]; [4]
  In-hospital mortality (%): (10.0%)
  In-hospital mortality (count): 3/30
[2]; [5]
  In-hospital mortality (%): (36.1%)
  In-hospital mortality (count): 44/122

From patent US20230404979A1, “ALPHA-2 […] RECEPTOR AGONISTS TO REDUCE MORTALITY AND IMPROVE OUTCOMES IN VIRAL R[…]” (RUSH UNIVERSITY MEDICAL CENTER, priority 2020, published 2023)
